In patent US8349828B2, “Azatricyclic antibiotic compounds” (Actelion Pharmaceuticals Ltd., priority 2008, dated 2013):
≈ marks a conversion by molar mass, not a printed value.

test system: M. catarrhalis A894; experiment: MIC determination by microdilution in cation-adjusted Mueller-Hinton Broth (CLSI M7-A7); format: cell-based; conditions: Moraxella catarrhalis, A894, microdilution method
Procedure: Minimal inhibitory concentrations (MICs, in mg/l) were determined in cation-adjusted Mueller-Hinton Broth by a microdilution method following the description given in “Methods for Dilution Antimicrobial Susceptibility Tests for Bacteria that Grow Aerobically”, Approved standard, 7th ed., Clinical and Laboratory Standards Institute (CLSI) Document M7-A7, Wayne, Pa., USA, 2006. All Example compounds were tested against several Gram-positive and Gram-negative bacteria.

Q: For `O=C1COc2ccc(N3C[C@@H](CNC[C@@H]4Cc5c(F)ccc6ccc(=O)n4c56)OC3=O)cc2N1` [Example 16, (S)-9-fluoro-2-({[(R)-2-oxo-3-(3-oxo-3,4-dihydro-2H-benzo[1,4]oxazin-6-yl)-oxazolidin-5-ylmethyl]-amino}-methyl)-1,2-dihydro-pyrrolo[3,2,1-ij]quinolin-4-one], which MIC is on record?
A: Its MIC is 0.125 µg/mL (≈ 0.269 µM).

Q: For `O=C1CSc2ccc(N3C[C@@H](CCNC[C@H]4Cc5c(F)ccc6ccc(=O)n4c56)OC3=O)cc2N1` [Example 18, (R)-9-fluoro-2-({2-[(R)-2-oxo-3-(3-oxo-3,4-dihydro-2H-benzo[1,4]thiazin-6-yl)-oxazolidin-5-yl]-ethylamino}-methyl)-1,2-dihydropyrrolo[3,2,1-ij]quinolin-4-one], which MIC is on record?
A: The MIC was no more than 0.063 µg/mL.

Q: For `O=C1CSc2ccc(N3C[C@H](CCNC[C@@H]4Cc5c(F)ccc6ccc(=O)n4c56)OC3=O)cc2N1` [Example 19, (S)-9-fluoro-2-({2-[(S)-2-oxo-3-(3-oxo-3,4-dihydro-2H-benzo[1,4]thiazin-6-yl)-oxazolidin-5-yl]-ethylamino}-methyl)-1,2-dihydropyrrolo[3,2,1-ij]quinolin-4-one], which MIC is on record?
A: Its MIC is no more than 0.063 µg/mL.

Q: For `O=C1CSc2ccc(N3C[C@H](CCNC[C@H]4Cc5c(F)ccc6ccc(=O)n4c56)OC3=O)cc2N1` [Example 20, (R)-9-fluoro-2-({2-[(S)-2-oxo-3-(3-oxo-3,4-dihydro-2H-benzo[1,4]thiazin-6-yl)-oxazolidin-5-yl]-ethylamino}-methyl)-1,2-dihydropyrrolo[3,2,1-ij]quinolin-4-one], which MIC is on record?
A: Its MIC is no more than 0.063 µg/mL.

Q: For `O=C1CSc2ccc(N3C[C@H](CCNC[C@@H]4Cc5cccc6ncc(=O)n4c56)OC3=O)cc2N1` [Example 29, (S)-5-({2-[(S)-2-oxo-3-(3-oxo-3,4-dihydro-2H-benzo[1,4]thiazin-6-yl)-oxazolidin-5-yl]-ethylamino}-methyl)-5,6-dihydro-pyrrolo[1,2,3-de]quinoxalin-3-one], which MIC is on record?
A: The MIC was no more than 0.063 µg/mL.

Q: With `O=C1CSc2ccc(N3C[C@@H](CNC[C@@H]4Cc5cccc6ncc(=O)n4c56)OC3=O)cc2N1` [Example 30, (S)-5-({[(R)-2-oxo-3-(3-oxo-3,4-dihydro-2H-benzo[1,4]thiazin-6-yl)oxazolidin-5-ylmethyl]-amino}-methyl)-5,6-dihydro-pyrrolo[1,2,3-de]quinoxalin-3-one] as the compound, how does the MIC read?
A: Its MIC is 0.125 µg/mL (≈ 0.27 µM).

same assay, conditions: microdilution method

Q: How did the “MIC M. catarrhalis A894” value turn out when `O=C1CSc2ccc(N3C[C@@H](CCNC[C@@H]4Cc5c(F)ccc6ccc(=O)n4c56)OC3=O)cc2N1` [Example 17, (S)-9-fluoro-2-({2-[(R)-2-oxo-3-(3-oxo-3,4-dihydro-2H-benzo[1,4]thiazin-6-yl)-oxazolidin-5-yl]-ethylamino}-methyl)-1,2-dihydro-1.5 pyrrolo[3,2,1-ij]quinolin-4-one] was run?
A: The value was “≦0.063 mg/l”.
